Assay results reported in patent publication US10471177B2, “Surface modified biological materials” (Orthobond Corporation, priority 2011, dated 2019).

Assay: Stability of gentamicin in 0.25M HCl under autoclave conditions
Assay type: physicochemical
Details: earlier studies

gentamicin
loss of gentamicin detection: No significant loss
